Experimental findings from patent US20250066388A1, “1,3,4,7-TETRAHYDRO-2H-PYRROLO[3',2':5,6]PYRIDO[2,3-B][1,4]OXAZEPINE BCL-2 INHIBITORS” (AbbVie Inc., priority 2022, published 2025) are described below.

The nature of series [1]: Bioavailability study: pharmacokinetics after single intravenous or oral dose in mouse. In kind it is in vivo. Conditions: for half-life: CD-1, mouse, plasma, 1 mg/kg. How it is done:
Studies were conducted to evaluate the pharmacokinetic profiles of Example 25 herein and Example 2 in WO 2019/040550 after single intravenous or oral dose in mouse. CD-1 mice (male) were obtained from Charles River Laboratories (Wilmington, MA).
The pharmacokinetics of Example 25 herein and Example 2 in WO 2019/040550 were evaluated following single 1 mg/kg intravenous or oral doses in mouse. Example 25 herein and Example 2 in WO 2019/040550 were prepared as a solution in DMSO: Tween 80: PEG-400: Dextrose 5% in Water (5:5:20:70, v/v) for the IV and oral dose mouse studies. The intravenous dose was administered as a slow bolus to the penile vein under isoflurane anesthesia. The oral doses were administrated by gavage. Serial blood samples were obtained […], 0.25, 0.5, 1.0, 4, 6, 9, 12, 24, 32 and 48 hours post dosing and […]. Plasma was separated by centrifugation and stored frozen (<−15° C.) until analysis.
HPLC-MS/MS bioanalytical methods were utilized for the quantitation of Example 25 herein and Example 2 in WO 2019/040550 concentration in plasma. The analytical methods used protein precipitation to extract compound from plasma. All samples were combined with a minimum two volume equivalents of organic solvent containing internal standard, vortexed and then centrifuged to pellet the proteins. Supernatants were used for subsequent analysis by liquid chromatography-tandem mass spectrometry (LC-MS/MS). Studies involving quantitative analysis employed spiked standards in plasma that were processed simultaneously with the samples.
Analytes were separated using reverse phase chromatography on a C8 or C18 column prior to analysis on an API5500™ (or higher) mass spectrometer with a Turbo-Ion Spray source. Peak areas were determined using Sciex Analyst™ 1.6 (or higher) software or Sound Analytics DiscoveryQuant™ 2.0 (or higher) software. Actual concentrations (when required) were calculated by regression analysis of the peak area ratio (parent/internal standard) of the spiked standards versus concentrations.
Peak plasma concentrations (Cmax) and the time to peak plasma concentration (Tmax) were determined directly from the plasma concentration data for each animal. The compound plasma concentration data were submitted to multi-exponential curve fitting using WinNonlin software. The area under the plasma concentration-time curve from 0 to t hours after dosing (AUC0-t, t=time of the last measurable plasma concentration) was calculated using the linear trapezoidal rule. The residual area extrapolated to infinity, determined as the final measured plasma concentration (Ct) divided by the terminal plasma elimination rate constant (β), was added to the AUC0-t to produce the total area under the curve (AUC0-∞). The apparent total plasma clearance (CLp) was calculated by dividing the administered dose by the AUC0-∞. Half-life (t1/2) was determined with the following calculation: t1/2=ln (2)/elimination rate constant. The initial volume of distribution (Vc) was calculated as the dose divided by the extrapolated concentration at time=0 (C0). The volume of distribution at steady state, Vss, was estimated as a product of the total plasma clearance (CLp) and the mean residence time (MRT); the terminal-phase volume of distribution, Vβ, was derived from the total plasma clearance value (CLp) divided by the terminal plasma elimination rate constant (β). Oral bioavailability (F) was calculated as the dose-normalized AUC0-∞ (AUC0-∞/D) from the oral dose divided by the corresponding dose normalized AUC0-∞ from intravenous dosing.

Another series addresses Bcl-xL protein (Homo sapiens (Human), UniProt Q07817). Nature of the series: TR-FRET binding assay, Bcl-xL. Conditions: F-Bak peptide probe.
For the next series, the target named is Bcl-2 protein (Homo sapiens (Human), UniProt P10415). Nature of the series: TR-FRET binding assay, Bcl-2. The conditions noted are these: F-Bak peptide probe, GST-Bcl-2.
Bcl-2 protein, sequence (P10415 other isoform, or with tags, fused parts or gaps): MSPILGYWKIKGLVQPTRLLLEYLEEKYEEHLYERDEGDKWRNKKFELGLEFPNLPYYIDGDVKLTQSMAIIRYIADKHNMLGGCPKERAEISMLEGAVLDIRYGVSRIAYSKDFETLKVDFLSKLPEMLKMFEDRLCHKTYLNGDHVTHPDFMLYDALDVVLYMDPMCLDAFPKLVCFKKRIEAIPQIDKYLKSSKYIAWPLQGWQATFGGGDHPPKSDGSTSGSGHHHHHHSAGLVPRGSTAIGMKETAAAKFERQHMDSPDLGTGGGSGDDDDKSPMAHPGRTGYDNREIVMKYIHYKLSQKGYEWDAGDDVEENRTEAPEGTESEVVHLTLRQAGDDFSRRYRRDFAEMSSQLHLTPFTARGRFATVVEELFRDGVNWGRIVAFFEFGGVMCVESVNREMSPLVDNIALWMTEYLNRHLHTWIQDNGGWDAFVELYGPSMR
In the next series the test system is Molt-4 cells. The series can be described thus: Cell viability counter screen (CellTiter-Glo) in Molt-4 cells. Conditions: 24 hours, 10% Human Serum. The class given is cell-based. A digest of the protocol:
(§1)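 3000 cells/well (0.1×10^6/mL) were treated with compound for 24 hours in 5% CO2. Viability read by CellTiter-Glo luminescence; Molt-4 (T-ALL) served as the counter screen to RS4;11 (ALL).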
For orientation: The purpose of a counterscreen is to sort out artefacts and off-target activity.

In a further series the test system is RS4;11 cells. The series can be described thus: Cell viability assay (CellTiter-Glo) in RS4;11 cells. In kind it is cell-based. The conditions noted are these: 24 hours, 10% Human Serum. The gist of the method:
as §1

The mark [2] stands for this setting: IV (1 mg/kg), mouse plasma, individual mouse.
Setting [3] is: PO (1 mg/kg), mouse plasma, individual mouse.

Where “and” joins values, the source holds several entries; their conditions need not be identical. Equal entries are not always repeated. Where two headings read alike, the source gives them in different places.

Bcl-xL protein, sequence (Q07817 other isoform, or with tags, fused parts or gaps): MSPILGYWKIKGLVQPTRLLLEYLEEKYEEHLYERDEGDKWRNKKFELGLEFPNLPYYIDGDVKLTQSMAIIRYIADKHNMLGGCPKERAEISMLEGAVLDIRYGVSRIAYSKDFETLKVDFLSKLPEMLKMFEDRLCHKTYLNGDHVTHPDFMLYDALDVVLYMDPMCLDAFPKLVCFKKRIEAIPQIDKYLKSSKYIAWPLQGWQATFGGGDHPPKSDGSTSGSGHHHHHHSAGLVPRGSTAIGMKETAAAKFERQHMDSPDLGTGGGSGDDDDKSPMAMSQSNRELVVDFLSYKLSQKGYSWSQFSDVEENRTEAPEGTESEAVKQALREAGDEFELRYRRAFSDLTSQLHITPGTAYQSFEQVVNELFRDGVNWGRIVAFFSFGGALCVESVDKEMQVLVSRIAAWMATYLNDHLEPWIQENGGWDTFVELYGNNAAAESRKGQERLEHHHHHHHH

In the case of `CO[C@@H]1CC[C@@H](CNc2ccc(S(=O)(=O)NC(=O)c3ccc(N4CCN5CC6=C(c7ccc(Cl)cc7)CC(C)(C)C[C@H]6OCCCOC[C@@H]5C4)cc3N3CCCOc4nc5[nH]ccc5cc43)cc2[N+](=O)[O-])OC1` [Example 25, 4-((4aS,10aR)-14-(4-chlorophenyl)-12,12-dimethyl-1,2,4a,5,8,9,10a,11,13,15-decahydro-7H,12H-benzo[f]pyrazino[2,1-c][1,8]dioxa[4]azacycloundecin-3(4H)-yl)-2-(3,4-dihydro-2H-pyrrolo[3′,2′:5,6]pyrido[2,3-b][1,4]oxazepin-1(7H)-yl)-N-((4-((((2S,5R)-5-methoxytetrahydro-2H-pyran-2-yl)methyl)amino)-3-nitrophenyl)sulfonyl)benzamide], in series [1] (setting [2]), the AUC was 11200 ng·h/mL and 12900 ng·h/mL; the C0 was 5020 ng/mL and 3470 ng/mL; the CLP was 1.48 mL/min/kg; the MRT was 9.8 h. Moreover, in series [1] (setting [2]), the VSS is 0.93 L/kg and 0.76 L/kg; the Vβ is 0.95 L/kg and 1.0 L/kg and 0.90 L/kg; the t1/2 is 7.9 h and 8.1 h. Also, the Vβ in series [1] (IV (1 mg/kg), mouse plasma, mean) amounted to 0.96 L/kg. For the same compound, in series [1] (setting [3]), the AUC is 4330 ng·h/mL and 4490 ng·h/mL; the Cmax was 279 ng/mL and 274 ng/mL. In series [1] (male, iv, IV (1 mg/kg), individual mouse), the half-life was 10 h. The compound also showed a half-life in series [1] (male, po, PO (1 mg/kg), harmonic mean) of 8.7 h. The half-life in series [1] (male, po, PO (1 mg/kg), individual mouse) is 8.7 h. Besides, the MRT in series [1] (male, CD-1, IV (1 mg/kg), mouse plasma, individual mouse, read-out: MRT) was 10 h. The clearance in series [1] (male, CD-1, IV (1 mg/kg), mouse plasma, mean, read-out: CLP (converted)) is 1.28 mL/min/kg. Moreover, the Tmax in series [1] (male, CD-1, PO (1 mg/kg), mouse plasma, individual mouse) is 4 h. At Bcl-xL protein, this compound had a Ki of 13.6 nM. The affinity at Bcl-2 protein, expressed as Ki, was 0.273 nM.
Turning to `CC1(C)CC(c2ccc(Cl)cc2)=C2CN3CCN(c4ccc(C(=O)NS(=O)(=O)c5ccc(NC[C@H]6CC[C@H](N7CCOCC7)CO6)c([N+](=O)[O-])c5)c(N5CCCOc6nc7[nH]ccc7cc65)c4)C[C@H]3COCCCO[C@@H]2C1` [Example 37, 4-((4aS,10aR)-14-(4-chlorophenyl)-12,12-dimethyl-1,2,4a,5,8,9,10a,11,13,15-decahydro-7H,12H-benzo[f]pyrazino[2,1-c][1,8]dioxa[4]azacycloundecin-3(4H)-yl)-2-(3,4-dihydro-2H-pyrrolo[3′,2′:5,6]pyrido[2,3-b][1,4]oxazepin-1(7H)-yl)-N-((4-((((2R,5S)-5-morpholinotetrahydro-2H-pyran-2-yl)methyl)amino)-3-nitrophenyl)sulfonyl)benzamide], the EC50 with Molt-4 cells stood at 1450 nM; in the series on RS4;11 cells, 1.05 nM. Moreover, the Ki came to 4.61 nM at Bcl-xL protein and 0.109 nM on Bcl-2 protein.
With `CC1(C)CC(c2ccc(Cl)cc2)=C2CN3CCN(c4ccc(C(=O)NS(=O)(=O)c5ccc(NCC6(F)CCN(C7COC7)CC6)c([N+](=O)[O-])c5)c(N5CCCOc6nc7[nH]ccc7cc65)c4)C[C@H]3COCCCO[C@@H]2C1` [Example 39, 4-((4aS,10aR)-14-(4-chlorophenyl)-12,12-dimethyl-1,2,4a,5,8,9,10a,11,13,15-decahydro-7H,12H-benzo[f]pyrazino[2,1-c][1,8]dioxa[4]azacycloundecin-3(4H)-yl)-2-(3,4-dihydro-2H-pyrrolo[3′,2′:5,6]pyrido[2,3-b][1,4]oxazepin-1(7H)-yl)-N-((4-(((4-fluoro-1-(oxetan-3-yl)piperidin-4-yl)methyl)amino)-3-nitrophenyl)sulfonyl)benzamide], the EC50 in the series on Molt-4 cells is 453 nM; in the series with RS4;11 cells, 1.66 nM. In addition, the Ki on Bcl-xL protein is 5.25 nM; at Bcl-2 protein, 0.194 nM.
`CO[C@H]1C[C@H](CNc2ccc(S(=O)(=O)NC(=O)c3ccc(N4CCN5CC6=C(c7ccc(Cl)cc7)CC(C)(C)C[C@H]6OCCCOC[C@@H]5C4)cc3N3CCCOc4nc5[nH]ccc5cc43)cc2[N+](=O)[O-])C1` [Example 41, 4-((4aS,10aR)-14-(4-chlorophenyl)-12,12-dimethyl-1,2,4a,5,8,9,10a,11,13,15-decahydro-7H,12H-benzo[f]pyrazino[2,1-c][1,8]dioxa[4]azacycloundecin-3(4H)-yl)-2-(3,4-dihydro-2H-pyrrolo[3′,2′:5,6]pyrido[2,3-b][1,4]oxazepin-1(7H)-yl)-N-((4-((((1r,3r)-3-methoxycyclobutyl)methyl)amino)-3-nitrophenyl)sulfonyl)benzamide]: the results for the EC50 in the series on Molt-4 cells and with RS4;11 cells were greater than 10000 nM and 3.93 nM, respectively. Besides, the Ki on Bcl-xL protein was found to be 25.2 nM; at Bcl-2 protein it was 0.224 nM.
On to `CC1(C)CC(c2ccc(Cl)cc2)=C2CN3CCN(c4ccc(C(=O)NS(=O)(=O)c5ccc(OCC6CCOCC6)c([N+](=O)[O-])c5)c(N5CCCOc6nc7[nH]ccc7cc65)c4)C[C@H]3COCCCO[C@@H]2C1` [Example 46, 4-((4aS,10aR)-14-(4-chlorophenyl)-12,12-dimethyl-1,2,4a,5,8,9,10a,11,13,15-decahydro-7H,12H-benzo[f]pyrazino[2,1-c][1,8]dioxa[4]azacycloundecin-3(4H)-yl)-2-(3,4-dihydro-2H-pyrrolo[3′,2′:5,6]pyrido[2,3-b][1,4]oxazepin-1(7H)-yl)-N-((3-nitro-4-((tetrahydro-2H-pyran-4-yl)methoxy)phenyl)sulfonyl)benzamide], for which the results for the EC50 in the series with Molt-4 cells and in the series on RS4;11 cells were greater than 10000 nM and 9.36 nM, respectively. In addition, the values for the inhibition constant Ki at Bcl-xL protein and on Bcl-2 protein were 21.7 nM and 0.202 nM, respectively.

A word on the AUC: it is the area under the concentration-time curve, a measure of exposure. A low value points to less exposure. The term MRT denotes the average time that molecules of a dose stay in the body. Usually Cmax stands for the maximum level reached in the sampled fluid or tissue. The term half-life denotes the time in which the quantity being followed falls by half. Lower therefore signals fast loss. For orientation: Tmax means the time at which the peak concentration occurs. As usually defined, the Ki is a dissociation constant, usually derived from enzyme kinetics or from competition with a known ligand. The EC50 is the concentration at which the effect is half-maximal. High values mean a need for much substance, low ones an effect from little substance.
